Experimental data from patent US12077759B2, “Compositions and methods for treating pathologic calcification” (Washington University, priority 2021, dated 2024).

System: Wnt/β-catenin pathway
Test: Treatment of ACLp cells with Wnt agonist SKL2001 (rescue of osteogenesis)
Assay type: cell-based, human
Settings: SKL2001 10 μM
Procedure: In short, 5×10^5 ACLp cells were first treated with KIF26B shRNA or scrambled shRNA for 48 hours and selected by Puromycin for another 48 hours. Afterward, 2×10^5 ACLp cells were seeded in a 12-well plate. Next osteogenesis was induced as above but in addition, SKL2001 (10 μM) dissolved in dimethyl sulfoxide (DMSO, Sigma-Aldrich) or DMSO only (vehicle) was added to cells. The medium was changed 3 times a week. After 7 days of osteogenic induction, the protein levels of active and total β-catenin were detected by Western blot as described above. After culture for 28 days, the Alizarin red staining was performed as above. After 28 days of osteogenic induction, RNA was isolated and expression of AXIN2 and WNT16 was measured using standard methods detailed above.

**Q.** How did the “decrease of active β-catenin protein levels after KIF26B knockdown (Western blot)” value (ACLp cells transduced with KIF26B shRNA, 7 days of osteogenic induction) turn out when O=C(NCCCn1ccnc1)c1cc(-c2ccco2)on1 [SKL2001] was run?
**A.** significantly attenuated

**Q.** What about the “decrease in osteogenesis due to KIF26B loss-of-function (Alizarin red staining)” value (ACLp cells transduced with KIF26B shRNA, 28 days) of the same compound?
**A.** reverted

**Q.** And the “AXIN2 mRNA expression” value (ACLp cells, 28 days of osteogenic induction, vehicle (DMSO) 1.00±0.02, p<0.001)?
**A.** 2.20±0.08

**Q.** And the “WNT16 mRNA expression” value (ACLp cells, 28 days of osteogenic induction, vehicle (DMSO) 1.00±0.14, p<0.001)?
**A.** 3.06±0.13
